Data set [1] concerns Multidrug resistant virus 7324-1. In words: Antiviral activity against multidrug resistant HIV, RT endpoint. Format: cell-based, HIV-1. The following applies: Human immunodeficiency virus 1.
The subject of the next data set is H. ducreyi Strain HMC 62. As to the kind of experiment: Antibacterial activity (MIC), strain HMC 62. The class given is cell-based, Haemophilus ducreyi. The settings on record: [Haemophilus] ducreyi, read-out: MIC (minimum inhibitory concentration).
Data set [2] concerns Cell-associated HIV-1, SupT1 (IIIB). In words: Single-round infection assay, cell-associated virus SupT1 (IIIB). Format: cell-based.
In data set [3] the test system is HIV-1 BaL (cell-free virus). In words: Single-round infection assay, cell-free virus BaL. Format: cell-based.
The subject of data set [4] is HIV-1 IIIB (cell-free virus). In words: microbe, parasite or virus in culture. Format: cell-based.
For data set [5], the system named is HIV-1 clinical isolate R5 = 92TH014. In words: Antiviral activity against HIV-1 clinical isolate R5, RT endpoint. The following applies: Human immunodeficiency virus 1, Table 2, 6 h incubation then 6 days, read-out: IC50. The class given is cell-based.
The next data set deals with H. ducreyi Strain HMC 64. As to the kind of experiment: Antibacterial activity (MIC), strain HMC 64. The class given is cell-based, Haemophilus ducreyi. The settings on record: [Haemophilus] ducreyi, read-out: MIC (minimum inhibitory concentration).
The subject of another data set is H. ducreyi Strain HMC56. As to the kind of experiment: Antibacterial activity (MIC), strain HMC56. The class given is cell-based, Haemophilus ducreyi. The following applies: [Haemophilus] ducreyi, read-out: MIC (minimum inhibitory concentration).
Data set [6] relates to Multidrug resistant virus 7324-1. In words: Antiviral activity against multidrug resistant HIV-1 clinical isolate, p24 level (ELISA). Format: cell-based. The following applies: Table 5, MDR = 7324-1, 6 h incubation then 6 days.
For data set [7], the system named is HIV-1 clinical isolate R5 = 92TH014. As to the kind of experiment: Antiviral activity against HIV-1 clinical isolate R5, p24 level (ELISA). The settings on record: Table 5, 6 h incubation then 6 days. The class given is cell-based.

Converted amounts (≈) assume the structure as drawn. Bounds are passed on as bounds.

Take `Cc1cn([C@H]2C[C@H](N=[N+]=[N-])[C@@H](CO)O2)c(=O)[nH]c1=O` [3′-azido-2′,3′-dideoxythymidine (AZT), 3′-azido-2′,3′-dideoxythymidine, reference compound]: the IC50 in data set [1] was 0.33 µg/mL (≈ 1.23 µM); in data set [2] (Human immunodeficiency virus 1, IIIB, SUP-T1, Table 1, 2 h incubation, wash, 48 h culture, read-out: IC50 Cell-Associated Virus SupT1 (IIIB)), above 100 µg/mL; in data set [3] (Human immunodeficiency virus 1, BAL, Table 1, 2 h incubation, wash, 48 h culture, read-out: IC50 Cell-Free Virus BaL), 0.8 µg/mL (≈ 2.99 µM); in [4] (Human immunodeficiency virus 1, IIIB, Table 1, 2 h incubation, wash, 48 h culture, read-out: IC50 Cell-Free Virus IIIB), 9.2 µg/mL (≈ 34.4 µM); in data set [5], 0.02 µg/mL (≈ 0.0748 µM). The MIC in the data set on H. ducreyi Strain HMC 62 is 750 µg/mL (≈ 2810 µM); in the data set with H. ducreyi Strain HMC 64 it was 500 µg/mL (≈ 1870 µM); with H. ducreyi Strain HMC56, 125 µg/mL (≈ 468 µM). In the data set “in vitro”, this compound displayed a CC50 above 100 µg/mL. The 50% effective concentration (EC50) in [2] (Human immunodeficiency virus 1, IIIB, SUP-T1, Table 4) was above 100 µg/mL; in data set [3] (Human immunodeficiency virus 1, BAL, Table 4), 4.2 µg/mL (≈ 15.7 µM); in data set [4] (Human immunodeficiency virus 1, IIIB, Table 4, read-out: EC50 Cell-Free Virus IIIB) it was 2.4 µg/mL (≈ 8.98 µM).

As for “Sodium Cellulose Sulfate-Acetate-AZT (1.73%) [CS-Ac-AZT]”, the results for the IC50 in [6] and in data set [7] were 4.22 µg/mL and 3.52 µg/mL, respectively. Further, in data set [2] (Table 4), the “EC50 Cell-Associated Virus SupT1-IIIB” value stood at 5.6 µg/mL. For the same compound, the “EC50 Cell-Free Virus BaL” value in data set [3] (Table 4) worked out at 8.1 µg/mL. Also, in data set [4] (Table 4), the “EC50 Cell-Free Virus IIIB” value was determined as 2.5 µg/mL. The “potency against cell-free virus relative to AZT, in moles” value in [4] (based on CS ~2×10^6 Daltons) is on record as 5 orders of magnitude.

Take “Sodium Cellulose Sulfate-Acetate-FLT (1.45%) [CS-Ac-FLT]”: the IC50 in data set [6] is 0.50 µg/mL; in data set [7] it was 2.67 µg/mL. Besides, the “EC50 Cell-Associated Virus SupT1-IIIB” value in data set [2] (Table 4) worked out at 5.8 µg/mL. For the same compound, in data set [3] (Table 4), the “EC50 Cell-Free Virus BaL” value is 1.5 µg/mL. The “EC50 Cell-Free Virus IIIB” value in [4] (Table 4) was 2.3 µg/mL.

Values taken from patent US9296776B2, “Substituted nucleoside derivatives with antiviral and antimicrobial properties” (Eastern Virginia Medical School, priority 2007, dated 2016).
